Assay [1] relates to extracellular dopamine (DA), serotonin (5-HT), and noradrenaline (NE) levels in the nucleus accumbens. The experiment in a line: In vivo microdialysis of monoamines in rat nucleus accumbens after intraperitoneal administration. Particulars: rat NAcc microdialysis, IP. Also noted: species or system Sprague Dawley rats. The protocol: Methods and Procedure: This study was conducted in compliance with previously described procedures to assure data integrity, adherence to GLP regulations, and standard preclinical study and surgery procedures. The in vivo microdialysis technique was applied to measure the over-time variations of DA, 5-HT, and NE extracellular (EC) concentrations in conscious, freely-moving Sprague Dawley rats. Levels of the neurotransmitters in microdialysis samples were determined using LC-MS/MS analysis. The experiment was also conducted with MDMA, which was used for comparative purposes.
As it relates to cannula implantation, the rats were anesthetized with isoflurane 4% in oxygen (2-2.5 L/min), then the isoflurane concentration 2-2.5% was maintained via a nose cone adapted to the stereotaxic apparatus. The rats were treated with meloxicam (0.2 mg/kg, subcutaneously, sc; Meloxidolor) and amoxicilline (150 mg/kg, sc, Betamox LA). The skull was then shaved and disinfected. Rats were then placed in a stereotaxic apparatus for small animals. One vertical guide cannula was inserted through a 1 mm hole drilled on the exposed skull. Coordinates—with respect to bregma—to target specific brain areas, followed indications from stereotaxic atlas of the rat brain. Specifically a guide cannula (MAB 4.12.IC, Agn Tho's AB, Lidingo, Sweden) was inserted in the NAcc (anteroposterior+1.6; lateral −1.6; dorsoventral −6.0). The guide cannula was then secured with dental cement and 2-4 screws. At the end of the surgery the animal was isolated in a single cage during recovery, for a period of at least one week, during which animal health conditions were checked twice daily and the weight recorded twice a week. Animals continued to be housed singly throughout the experiment. One day before the experiment the cannula stylet was removed and a microdialysis probe with a dialyzing length of 2 mm (MAB 4.12.2 Cu, Agn Tho's AB, Lidingo, Sweden) was inserted. Probes can be re-used 2 times for 2 experimental sessions after appropriate cleaning with fresh milliQ water.
Post-surgery, the rats were maintained in a heating chamber prior to waking up in order to avoid hypothermia that could be caused by anaesthesia. 5 mL of physiologic solution was subcutaneously administered immediately after surgery, and once/day for 2-3 days, if signs of dehydration are noticed. Meloxicam (Meloxidolor) 0.2 mg/kg was again administered subcutaneously the day after surgery as well as after 48h after surgery together with Amoxicilline Long Acting (Betamox LA) 150 mg/kg. Health status and body weight was checked every day during the first week.
The animals were treated with test compounds described herein, MDMA, or their vehicle (saline) according to a Latin square design over 5 separate experimental days (one day/week). The treatments were administered in a volume of 1 mL/kg intraperitoneally.
On the day of the experiment, each animal was taken into the laboratory in its home cage. Inlet tubing of the probe was attached to a dual quartz-lined two channel liquid swivel mounted on a low mass spring counterbalance arm which, in turn, was connected to a gas-tight syringe on a microinfusion pump. […] An equilibration period of about two hours of perfusion was allowed before collecting samples. Following the equilibration period, 4 basal samples were collected for each experimental animal followed by further 10 post-treatment samples. Samples were collected every 20 minutes (up to 3 hours and 20 minutes post-treatment) by means of a refrigerated auto-sampler (Univentor 820 Microsampler, Agn tho's, Sweden) maintained at +8° C. At the end of all experimental sessions, 2 μL of 0.1% methylene blue solution was injected through the microdialysis probe, animals were euthanized, and their brains removed to confirm the correct probe-position.
The concentrations of DA, 5-HT and NE in CSF samples were determined using an optimized method based on LC-MS/MS analysis. […]

Another assay deals with T1, human 5-HT2A receptor (Homo sapiens, UniProt P28223).
T1 construct: expressed in transfected cells; host or cells: CHO
T1 sequence (P28223 whole entry): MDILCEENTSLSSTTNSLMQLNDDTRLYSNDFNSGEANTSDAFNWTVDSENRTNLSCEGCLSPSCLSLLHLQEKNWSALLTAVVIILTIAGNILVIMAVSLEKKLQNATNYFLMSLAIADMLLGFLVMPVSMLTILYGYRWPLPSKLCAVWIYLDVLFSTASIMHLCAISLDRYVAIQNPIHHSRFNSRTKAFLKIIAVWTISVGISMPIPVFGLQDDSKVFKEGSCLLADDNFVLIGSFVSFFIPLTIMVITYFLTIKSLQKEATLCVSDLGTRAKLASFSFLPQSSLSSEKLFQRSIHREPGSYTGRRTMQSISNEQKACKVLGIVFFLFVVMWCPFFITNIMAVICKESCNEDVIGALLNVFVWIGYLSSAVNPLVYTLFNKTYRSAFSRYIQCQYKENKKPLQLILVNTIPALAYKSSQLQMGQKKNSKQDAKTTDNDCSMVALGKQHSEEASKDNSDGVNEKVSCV
The experiment in a line: Intracellular calcium response (FLIPR) in CHO cells expressing human 5-HT2A receptor, agonist and antagonist modes. The format is cell-based. (In general: A change in cytosolic calcium serves as a functional read-out for many receptors and channels.)

Like-named read-outs stand apart in the source and are kept apart here.

Description for human 5-HT2A receptor: Methods and Procedure: Selectivity for the 5-HT2A receptor was assessed by measuring [Ca^2+]; in a CHO recombinant cell line stably expressing the human 5-HT2A receptor, using Fluorometric Imaging Plate Reader (FLIPR TETRA, Molecular Devices).
The day before the experiment, CHO cells were seeded into clear-bottom 384-well plates at a density of 10,000 cells per well, in F-12K Medium (ThermoFisher #21127) supplemented with 10% dialyzed fetal bovine serum, and grown overnight at 37° C., 5% CO2.
On the day of the experiment, the medium was replaced with assay buffer (20 mM HEPES, 145 mM NaCl, 5 mM KCl, 5.5 mM glucose, 1 mM MgCl2, 2 mM CaCl2 and 2.5 mM probenecid, pH 7.4) containing the cytoplasmic Ca^2+ indicator Fluo-4 AM at 2 μM and 0.02% Pluronic F-127. After an incubation of 45-60 minutes at 37° C., 0% CO2, cells were washed by Microplate Washer (BIOTEK) 384 with assay buffer, and the plate was transferred in the FLIPR TETRA. Then, intracellular fluorescence was measured in real time by FLIPR TETRA (excitation wavelength at 470-495 nm, emission wavelength at 515-575 nm), using a dual addition protocol.
In the first addition, test compounds (11 points of 1:4 serial dilution, 0.5% DMSO final) were added to the cell plate to evaluate their effect on intracellular calcium levels. In the event of a response, the signal was elaborated for the determination of pEC50/EC50 values. […] Inhibition of 5-HT response vs. vehicle effect (0.5% DMSO) was elaborated for the determination of pIC50/IC50 values. […] A CRC of ketanserin was used as the internal antagonist control.

With `CNC(C)Cc1ccc2c(c1)OCO2` (stereo not drawn) [MDMA, reference compound], the “5HT level relative to baseline levels (100%)” value was 130% in assay [1] (20 min post-administration), 2150% in assay [1] (40 min post-administration) and 900% in assay [1] (200 min post-administration). Besides, the “DA level relative to baseline levels (100%)” value in assay [1] (20 min post-administration) is on record as 120%; in assay [1] (40 min post-administration) it was 400%; in assay [1] (60 min post-administration) it was 560%; in assay [1] (200 min post-administration), 300%. Moreover, the “NE level relative to baseline levels (100%)” value came out at 120% in assay [1] (20 min post-administration), 500% in assay [1] (40 min post-administration), 500% in assay [1] (60 min post-administration) and 300% in assay [1] (200 min post-administration). The EC50 on human 5-HT2A receptor (5-HT2A agonist selectivity (pEC50), agonist mode, CHO cells, calcium response) was greater than 50.1 µM; at human 5-HT2A receptor (5-HT2A antagonist selectivity (represented as pEC50), antagonist mode, versus serotonin EC80), greater than 50.1 µM.
Consider `Clc1ccc(C23CNC(CO2)C3)cc1Cl` (stereo not drawn) [522A, 1-(3,4-dichlorophenyl)-2-oxa-5-azabicyclo[2.2.1]heptane], for which the “5HT level relative to baseline levels (100%)” value in assay [1] (20 min post-administration) stood at 100%; in assay [1] (40 min post-administration) it was 380%; in assay [1] (60 min post-administration), 480%; in assay [1] (200 min post-administration), 200%. Moreover, the “DA level relative to baseline levels (100%)” value in assay [1] (20 min post-administration) stood at 100%; in assay [1] (40 min post-administration), 160%; in assay [1] (60 min post-administration), 185%; in assay [1] (200 min post-administration) it was 125%. The “NE level relative to baseline levels (100%)” value in assay [1] (20 min post-administration) stood at 130%; in assay [1] (40 min post-administration), 150%; in assay [1] (60 min post-administration), 160%; in assay [1] (200 min post-administration), 125%. Further, the EC50 at human 5-HT2A receptor (agonist mode, CHO cells, calcium response, read-out: 5-HT2A agonist selectivity (pEC50) (converted)) is 50.1 µM; at human 5-HT2A receptor (antagonist mode, versus serotonin EC80, read-out: 5-HT2A antagonist selectivity (represented as pEC50) (converted)), 3.98 µM.

The record behind these values is patent publication US12595269B2, “Morpholine-like monoamine releasers” (Solvonis Therapeutics Ireland Holdings Limited, priority 2022, dated 2026).
